Test results taken from article PMC3545186 (Biochemical Pharmacology, 2013).
Numbered stars: 1 amine (or outer) side, 2 acyl side, 3 side chain; on linkers, the order of the positions; unused ones are H or OH. Bridge positions count the residues as written; N and C are the ends. Square brackets hold non-standard residues; d marks the D form. Peptide text beside a SMILES is read from it. I, II: the chains in the order shown. Actinocin(9to1) = Cc1c2oc3c(C)ccc(C(=O)[*:1])c3nc-2c(C(=O)[*:2])c(N)c1=O; NMeV = CN[C@H](C(=O)O)C(C)C; Sar = CNCC(=O)O

What was measured:
MDCKII-ABCB1 cells [1] = test: Fluorescence competition assay with ABCB1 substrate doxorubicin; format: cell-based, canine; settings: MDCKII-ABCB1, 1 h pre-incubation, doxorubicin 10 μM 1 h
MDCKII-WT cells [2] = test: Growth inhibition; format: cell-based, canine
MDCKII-WT cells [3] = test: Fluorescence competition assay with ABCB1 substrate doxorubicin; format: cell-based, canine; settings: 1 h pre-incubation, doxorubicin 10 μM 1 h
MDCKII-ABCB1 cells [4] = test: Intracellular accumulation of Act D; format: in vitro ADME, canine

- intracellular accumulation of Act D (MDCKII-ABCB1 cells [4]; MDCKII-ABCB1, 0.01 μM Act D, 12 h): 0.1 nM
- increase in intracellular Act D with verapamil (MDCKII-ABCB1 cells [4]; MDCKII-ABCB1, 10 μM verapamil, 0.1 μM Act D, 4 h): 7.9 fold
- lower accumulation of Act D compared to parental cell line (MDCKII-ABCB1 cells [4]; MDCKII-ABCB1 vs MDCKII-WT, 0.01 μM Act D, 12 h): 9.8 fold
Structure (SMILES): Cc1c2oc3c(C)ccc(C(=O)N[C@@H]4C(=O)N[C@H](C(C)C)C(=O)N5CCC[C@H]5C(=O)N(C)CC(=O)N(C)[C@@H](C(C)C)C(=O)O[C@@H]4C)c3nc-2c(C(=O)N[C@@H]2C(=O)N[C@H](C(C)C)C(=O)N3CCC[C@H]3C(=O)N(C)CC(=O)N(C)[C@@H](C(C)C)C(=O)O[C@@H]2C)c(N)c1=O [Act D, actinomycin D] (I: T[dV]P[Sar][NMeV] / II: T[dV]P[Sar][NMeV]; ester I:1-I:C, II:1-II:C; linker I:N-II:N via Actinocin(9to1))
- Act D concentration required to maximally inhibit doxorubicin efflux (MDCKII-ABCB1 cells [1]): 1 to 25 µM
- increase in sensitivity to Act D with MK571 (MDCKII-WT cells [2]; MK571 25 μM): 3 fold
- reduction in GI50 with verapamil (MDCKII-WT cells [2]; verapamil 1 μM, 72 h): 3 fold
- Act D concentration at which intracellular doxorubicin levels plateaued (MDCKII-WT cells [3]): 0.1 to 1 µM
